Source: patent US20140243292A1, “SUBSITUTED 2-(CHROMAN-6-YLOXYL)-THIAZOLES AND THEIR USE AS PHARMACEUTICALS” (Sanofi, priority 2011, published 2014)

What was measured:
Sprague-Dawley rats = assay: In vivo method for determining the effect on heart contractility (left ventricular dp/dtmax); details: Rattus norvegicus, iv, anesthetized rats, vs solvent control, read-out: Contractility increase (%); for change in vivo at 0.1 mg/kg: i.v. bolus injection 0.1 mg/kg; for change in vivo at 0.3 mg/kg: i.v. bolus injection 0.3 mg/kg; for change in vivo at 1 mg/kg: i.v. bolus injection 1.0 mg/kg
Description: Adult male Sprague-Dawley rats (Harlan Winkelmann, Borchen, Germany) weighing 340 to 370 g were anesthetized with pentobarbital (100 mg/kg i.p.) and ventilated with a mixture of oxygen (40%) and room air (60%) at a tidal volume of 1 ml/100 g at 60 breaths/min. Body temperature was maintained at 36.5±0.3° C. with a heating lamp and was monitored with a rectal thermo sensor. Systemic blood pressure was measured in the left carotid artery using a pressure transducer (Combitrans; B. Braun Melsungen AG, Melsungen, Germany) connected to a DC-bridge-amplifier (PLUGSYS/ADC Type 663; Harvard Apparatus GmbH, March-Hugstetten, Germany). The electrocardiogram was measured as lead II via subcutaneously placed electrodes connected to a Heart-Rate-Module ([…] Type 669; Harvard Apparatus GmbH, March-Hugstetten, Germany). A micro-tip catheter (2 French, SPR-320; Millar Instruments, Houston, Tex., USA) was placed via the right carotid artery into the left ventricle, and the left ventricular pressure (LVP) and the enddiastolic pressure (EDP) were continuously measured. Registration of the hemodynamic data was performed via an analog digital converter by a personal computer using Notocord software (HEM version 3.5). Left ventricular contractility (dp/dtmax) and relaxation (dp/dtmin) were calculated from the LVP signal. For intravenous administration of the test compounds, the left jugular vein was prepared and a PP-50 catheter was inserted. Test compounds were administered either by intravenous bolus injection or by intravenous infusion by means of an infusion pump (Unita; B. Braun Melsungen AG, Melsungen, Germany). […] In a typical experiment, several dosages of the test compound were administered subsequently at increasing doses. Statistical significance of the data obtained with drug vs. control experiments, in which solvent was administered, was evaluated with the 2-sided ANOVA test (program Everstat). Increases in left ventricular contractility (percent increase) by example compounds are given in Table 3 in comparison to control experiments in which solvent was administered.

human NCX1 = target: T1, human NCX1 (Homo sapiens, UniProt P32418); assay: NCX1 inhibition, forward mode (Ca2+ efflux out of cells), FLIPR calcium assay; format: cell-based; details: CHO cells stably expressing human NCX1, read-out: NCX1fw IC50
T1 construct: expressed in transfected cells
Excerpt: The sodium/calcium exchanger NCX1 can transport calcium ions and sodium ions through the cell membrane. The transport is an exchange of Ca^2+ and Na^+ in two directions depending on membrane potential and ion gradients. At the first direction, named “forward mode” or “calcium export mode”, Ca^2+ is transported out of the cell and Na^+ is transported into the cell. At the other direction, named “reverse mode” or “calcium import mode”, the transport directions are vice versa. The effect of the compounds of the invention on NCX1 was determined in CHO cells stably expressing human NCX1 (gene symbol SLC8A1; cf. WO 2009/115238). The assay is based on the monitoring of intracellular Ca^2+ concentrations using a calcium-sensitive fluorescence dye which is detected by means of a FLIPR device (Fluorimetric Imaging Plate Reader, Molecular Devices).
The assay is based on the monitoring of intracellular Ca^2+ concentrations using the PBX Calcium Assay Kit from BD (Becton, Dickinson and Company) with calcium indicator dye 51-9000177BKa (BD, 640177). CHO cells expressing NCX1 were loaded with the dye, and after a preincubation period with the test compound, Ionomycin (Calbiochem, 407950) was added. Ionomycin is an ionophor for Ca^2+ ions mediating an increase of intracellular Ca^2+ ions. Consequently, intracellular Ca^2+ ions are exchanged against extracellular Na^+ ions (Ca^2+ efflux, forward mode). The decrease of intracellular Ca^2+ ions was detected by measuring the fluorescence of the calcium indicator dye at a wavelength of 520 nm by a FLIPR device.
Briefly, similarly as for the reverse mode, for the forward mode transport assay 18000 cells per well were seeded into a 96 well microplate (Corning COSTAR 3904) and incubated overnight in culture medium (cf. above). A total volume of 100 μl medium per well was used. For the preparation of the FLIPR assay, the culture medium was removed from the plates and 100 μl of assay buffer (133.8 mM NaCl (Sigma, S5886); 4.7 mM KCl (Sigma, P3911); 1.25 mM MgCl2 (Merck, 1.05833.0250); 3.5 mM CaCl2(Merck, 1.02083.0250); 5 mM glucose (Sigma, G7021); 10 mM Hepes (Sigma, H4034); pH 7.4)) were added to each well in a washing step. Assay buffer was removed, and 100 μl of a solution of the test compound in assay buffer in different concentrations were added into the wells. Further, 100 μl of dye solution (0.09% (v/v) calcium indicator dye, 9.1% (v/v) signal enhancer (from PBX Calcium Assay Kit); in assay buffer) were added into each well. The plates were incubated in the dark at room temperature for 60 min. Meanwhile a 10 μM solution of Ionomycin in assay buffer (additionally containing 0.05% fetal calf serum (cf. above); 4° C.) was prepared and stored in the wells of a 96 well microplate (96 well microplate, polypropylene, U-shape (Greiner Bio-One, 650201)). The fluorescence monitoring was performed at 60 measuring points with measurement intervals of 2 sec. After the fifth measuring point, 50 μl of the Ionomycin solution were added to each well of the assay plate to give a final Ionomycin concentration of 2 μM. For the determination of the IC50 values the minimal fluorescence value was subtracted from the maximal fluorescence value for the fifteenth to fifty-fifth measuring points. The calculation of the IC50 values via the percentage inhibitions of Ca^2+ efflux out of cells (forward mode) effected by the test compound was performed in Biost@t Speed 2.0. “NCX1fw IC50” in Table 2 means the IC50 value for inhibition of NCX1 in forward mode (in μM (micromol/liter)).

Row | SMILES | change in vivo at 0.1 mg/kg (Sprague-Dawley rats) | change in vivo at 0.3 mg/kg (Sprague-Dawley rats) | change in vivo at 1 mg/kg (Sprague-Dawley rats) | IC50 (human NCX1)
1 | Cc1ccccc1C1CCc2cc(Oc3ncc(C(=O)NCCO)s3)ccc2O1 (centres unmarked) [Example 299, 2-(2-o-Tolyl-chroman-6-yloxy)-thiazole-5-carboxylic acid (2-hydroxy-ethyl)-amide] | 36% | 62% | 95% | 600 nM
2 | Cc1ccccc1C1CCc2cc(Oc3ncc(CNC(=O)c4ccno4)s3)ccc2O1 (centres unmarked) [Example 329, Isoxazole-5-carboxylic acid [2-(2-o-tolyl-chroman-6-yloxy)-thiazol-5-ylmethyl]-amide] | 24% | 53% | 101% | 2500 nM
